In patent US20120058541A1, “ENGINEERING RESISTANCE TO ALIPHATIC ALCOHOLS” (BUTAMAX(TM) ADVANCED BIOFUELS LLC, priority 2009, published 2012):

Tested on: L. plantarum PN0512
Experimental: IC50 values were determined in shake flasks as follows. Duplicate glass test tubes containing 5 ml MRS medium plus 10 μg/ml chloramphenicol (MRS-Cm) were each inoculated with a single colony and grown for 24 h at 30° C. in a rollerdrum. 500 μl of each of these cultures were used to inoculate 25 ml MRS-Cm, which was grown for 16 h at 30° C. with shaking at 110 rpm. […] Cultures were grown at 30° C. with shaking at 110 rpm, and growth was measured by monitoring OD600. OD600 values that were clearly off the growth curve were discarded (less than 1% of values were discarded).
This is mathematically equivalent to drawing a line between (C1,I1) and (C2,I2) and finding the concentration at which that line intersects I=50%. An IC50 was calculated for each set of flasks inoculated from the same preculture. An average IC50 was also calculated.

SMILES: CCCCO [Strain 1-butanol, 1-butanol]
- 1-butanol IC90: 2.3%
